Laboratory results published in ChEMBL document CHEMBL3286266, “Development of novel benzomorpholine class of diacylglycerol acyltransferase I inhibitors” (ACS Med Chem Lett, 2014).
pIC50: −log10 of the molar value. In brackets after ≈: the same amount, converted by molar mass.

Columns and labels:
[1] = target: T1, Diacylglycerol O-acyltransferase 1 (Mus musculus, UniProt Q9Z2A7); assay: Inhibition of mouse DGAT1 expressed in Sf9 insect cells using 1,2-dioleoyl-sn-glycerol and [14C]-palmitoyl-CoA substrate by scintillation counting analysis
T1 sequence (Q9Z2A7 whole entry): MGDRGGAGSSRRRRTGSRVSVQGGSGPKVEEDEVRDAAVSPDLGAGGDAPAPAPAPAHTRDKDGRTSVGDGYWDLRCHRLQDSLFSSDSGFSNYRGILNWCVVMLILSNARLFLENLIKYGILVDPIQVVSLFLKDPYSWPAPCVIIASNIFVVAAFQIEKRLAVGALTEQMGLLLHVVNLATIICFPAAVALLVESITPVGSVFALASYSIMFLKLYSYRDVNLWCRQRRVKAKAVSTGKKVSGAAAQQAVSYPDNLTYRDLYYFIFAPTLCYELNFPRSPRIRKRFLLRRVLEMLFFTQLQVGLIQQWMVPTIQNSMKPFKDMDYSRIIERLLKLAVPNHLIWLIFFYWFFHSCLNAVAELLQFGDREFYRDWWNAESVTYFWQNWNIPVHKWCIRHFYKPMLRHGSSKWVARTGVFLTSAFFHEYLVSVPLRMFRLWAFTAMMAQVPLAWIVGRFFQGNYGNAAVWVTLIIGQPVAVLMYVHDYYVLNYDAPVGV

Mus musculus [2] = assay: Reduction in triglycerides level in mouse at 3 mg/kg, po after 2 hrs by postprandial triglyceride assay; format: functional
[3] = target: T2, Diacylglycerol O-acyltransferase 1 (Homo sapiens, UniProt O75907); assay: Inhibition of human DGAT1 expressed in Sf9 insect cells using 1,2-dioleoyl-sn-glycerol and [14C]-palmitoyl-CoA substrate by scintillation counting analysis
T2 sequence (O75907 whole entry): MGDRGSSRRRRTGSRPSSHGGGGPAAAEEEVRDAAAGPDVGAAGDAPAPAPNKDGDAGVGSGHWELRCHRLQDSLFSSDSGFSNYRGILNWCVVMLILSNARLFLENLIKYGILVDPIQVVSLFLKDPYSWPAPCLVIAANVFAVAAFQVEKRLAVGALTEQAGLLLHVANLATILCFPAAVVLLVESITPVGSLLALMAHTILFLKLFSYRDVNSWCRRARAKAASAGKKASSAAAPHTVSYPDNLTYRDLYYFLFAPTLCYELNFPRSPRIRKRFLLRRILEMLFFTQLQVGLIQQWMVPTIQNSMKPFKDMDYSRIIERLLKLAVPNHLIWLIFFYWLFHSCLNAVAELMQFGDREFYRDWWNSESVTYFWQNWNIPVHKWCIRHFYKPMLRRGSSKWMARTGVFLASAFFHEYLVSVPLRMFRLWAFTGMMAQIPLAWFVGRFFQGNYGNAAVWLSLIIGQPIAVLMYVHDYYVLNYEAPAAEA

Mus musculus [4] = assay: Reduction in triglycerides level in mouse at 10 mg/kg, po after 2 hrs by postprandial triglyceride assay; format: functional
[5] = AUC in mouse at 10 mg/kg; format: ADME, organism-based; parameters: dose 10 mg/kg; details: plasma
[6] = Metabolic stability in human plasma assessed as compound loss measured at 12 hrs at 25 degC; format: ADME, cell-free; details: read-out: Drug metabolism
[7] = target: T3, Sterol O-acyltransferase 2 (Homo sapiens, UniProt O75908); assay: Inhibition of human ACAT2 expressed in Sf9 insect cells using [14C]-oleoyl-CoA by scintillation counting analysis
T3 sequence (O75908 whole entry): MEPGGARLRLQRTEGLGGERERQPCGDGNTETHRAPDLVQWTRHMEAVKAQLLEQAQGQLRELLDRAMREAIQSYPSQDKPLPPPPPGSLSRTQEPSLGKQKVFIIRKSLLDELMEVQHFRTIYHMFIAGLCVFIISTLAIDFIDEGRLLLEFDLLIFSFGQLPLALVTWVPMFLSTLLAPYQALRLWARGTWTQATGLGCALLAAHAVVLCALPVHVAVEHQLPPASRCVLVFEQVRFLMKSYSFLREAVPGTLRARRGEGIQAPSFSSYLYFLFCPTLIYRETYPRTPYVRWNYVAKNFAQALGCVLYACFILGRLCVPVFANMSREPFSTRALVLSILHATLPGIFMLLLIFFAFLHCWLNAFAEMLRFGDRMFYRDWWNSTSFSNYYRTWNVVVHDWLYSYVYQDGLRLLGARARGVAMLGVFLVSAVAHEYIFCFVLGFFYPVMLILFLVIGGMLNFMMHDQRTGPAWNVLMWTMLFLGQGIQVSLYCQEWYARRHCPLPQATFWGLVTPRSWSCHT

Homo sapiens [8] = species: Homo sapiens; assay: Selectivity for human DGAT1 over human DGAT2
Homo sapiens [9] = species: Homo sapiens; assay: Selectivity for human DGAT1 over human ACAT
[10] = Permeability in human Caco2 cells; format: ADME, cell-based; details: Caco-2, read-out: permeability
[11] = Solubility of the compound; format: physicochemical
[12] = Clearance in rat liver hepatocytes measured per million cells; format: ADME, cell-based, Hepatocyte; details: read-out: CLH
[13] = Clearance in human liver hepatocytes measured per million cells; format: ADME, cell-based, Hepatocyte; details: read-out: CLH
CYP1A1 = target: T4, CYP1A1 (Homo sapiens, UniProt P04798); assay: Induction of CYP1A1 (unknown origin) at 30 uM relative to control; format: ADME; details: read-out: FC
T4 sequence (P04798 whole entry): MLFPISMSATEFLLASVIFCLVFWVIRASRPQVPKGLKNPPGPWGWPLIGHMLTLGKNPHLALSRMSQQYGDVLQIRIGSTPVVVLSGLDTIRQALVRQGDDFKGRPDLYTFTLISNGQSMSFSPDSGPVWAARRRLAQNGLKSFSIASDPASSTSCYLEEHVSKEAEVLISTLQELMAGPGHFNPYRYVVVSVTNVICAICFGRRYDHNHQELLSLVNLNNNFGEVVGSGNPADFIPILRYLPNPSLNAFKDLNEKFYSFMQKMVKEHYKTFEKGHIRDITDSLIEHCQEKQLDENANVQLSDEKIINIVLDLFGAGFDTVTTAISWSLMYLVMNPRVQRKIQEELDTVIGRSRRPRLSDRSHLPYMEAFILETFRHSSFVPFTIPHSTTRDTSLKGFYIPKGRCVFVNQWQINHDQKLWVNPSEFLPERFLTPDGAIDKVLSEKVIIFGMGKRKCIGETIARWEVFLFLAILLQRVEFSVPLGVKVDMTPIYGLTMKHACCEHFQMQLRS

Compound	pIC50 [1]	pIC50 [3]	further results
CCC1CN(C(=O)Nc2ccccc2)c2ccc(-c3ccc(OC[C@H]4C[C@@H]4C(=O)O)nc3)cc2O1 (relative stereo)	6.68	–	–
O=C(O)C[C@H]1CC[C@H](c2ccc(-c3ccc4c(c3)OCCN4C(=O)Cc3ccccc3)cc2)CC1	6.96	–	–
CC(C(=O)O)[C@H]1CC[C@H](c2ccc(-c3ccc4c(c3)OCCN4C(=O)Nc3ccccc3)cc2)CC1 (stereo partly drawn)	6.70	–	–
CCC1CN(C(=O)Nc2ccccc2)c2ccc(-c3ccc(OCC4(C(=O)O)CCC4)nc3)cc2O1 (stereo not drawn)	6.96	–	–
O=C(O)[C@@H]1CCC[C@H]1C(=O)c1ccc(-c2ccc3c(c2)OCCN3C(=O)Nc2ccccc2)cc1	6.08	–	–
CCc1ccccc1NC(=O)N1C[C@H](C)Oc2cc(-c3ccc([C@H]4CC[C@H](CC(=O)O)CC4)cc3)ccc21	7.28	7.07	inhibition in vivo at 3 mg/kg (Mus musculus [2]): 46%
CC(C)c1ccccc1NC(=O)N1CCOc2cc(-c3ccc([C@H]4CC[C@H](CC(=O)O)CC4)cc3)ccc21	7.16	–	–
O=C(O)C[C@H]1CC[C@H](c2ccc(-c3ccc4c(c3)N(C(=O)Nc3ccccc3)CCO4)cc2)CC1	< 5.00	< 5.00	–
CCC1CN(C(=O)Nc2ccccc2)c2ccc(-c3ccc([C@H]4CC[C@H](CC(=O)O)CC4)cc3)cc2O1 (stereo partly drawn)	7.35	–	inhibition in vivo at 10 mg/kg (Mus musculus [4]): 88%; AUC [5]: 63 µM·h
O=C(O)C[C@H]1CC[C@H](c2ccc(-c3ccc4c(c3)OCCN4S(=O)(=O)Cc3ccccc3)cc2)CC1	< 5.00	< 5.00	–
CCCC1CN(C(=O)Nc2ccccc2)c2ccc(-c3ccc([C@H]4CC[C@H](CC(=O)O)CC4)cc3)cc2O1 (stereo partly drawn)	6.80	–	–
CCc1ccccc1NC(=O)N1CC(C)Oc2cc(-c3ccc([C@H]4CC[C@H](CC(=O)O)CC4)cc3)ccc21 (stereo partly drawn)	7.30	6.96	inhibition in vivo at 3 mg/kg (Mus musculus [2]): 92%
CC1Oc2cc(-c3ccc([C@H]4CC[C@H](CC(=O)O)CC4)cc3)ccc2N(C(=O)Nc2ccccc2)C1=O (stereo partly drawn)	< 5.00	< 5.00	–
CC1COc2cc(-c3ccc([C@H]4CC[C@H](CC(=O)O)CC4)cc3)ccc2N1C(=O)Nc1ccccc1 (stereo partly drawn)	6.20	–	–
O=C(O)C[C@H]1CC[C@H](c2ccc(-c3ccc4c(c3)OCCN4C(=O)Nc3ccccc3)cc2)CC1	–	–	inhibition in vivo at 10 mg/kg (Mus musculus [4]): 52%; metabolised at 12 h [6]: 10%
CC1CN(C(=O)Nc2ccccc2)c2ccc(-c3ccc([C@H]4CC[C@H](CC(=O)O)CC4)cc3)cc2O1 (stereo partly drawn)	7.48	7.04	inhibition in vivo at 10 mg/kg (Mus musculus [4]): 85%; pIC50 [7]: 5.30; AUC [5]: 79 µM·h
CS(=O)(=O)NC(=O)C[C@H]1CC[C@H](c2ccc(-c3ccc4c(c3)OCCN4C(=O)Nc3ccccc3)cc2)CC1	5.14	–	–
CC(C)C1CN(C(=O)Nc2ccccc2)c2ccc(-c3ccc([C@H]4CC[C@H](CC(=O)O)CC4)cc3)cc2O1 (stereo partly drawn)	6.52	–	–
Nc1ccccc1NC(=O)N1CCOc2cc(-c3ccc([C@H]4CC[C@H](CC(=O)O)CC4)cc3)ccc21	5.28	–	–

Compound	pIC50 [1]	pIC50 [3]	further results
CCC1CN(C(=O)Nc2ccccc2)c2ccc(-c3ccc(OCC4(C(=O)O)CC4)nc3)cc2O1 (stereo not drawn)	7.05	–	–
C[C@H]1CN(C(=O)Nc2ccccc2)c2ccc(-c3ccc([C@H]4CC[C@H](CC(=O)O)CC4)cc3)cc2O1	6.44	6.28	–
O=C(O)C[C@H]1CC[C@H](c2ccc(-c3ccc4c(c3)OCCN4C(=O)NCCCCc3ccccc3)cc2)CC1	7.44	–	inhibition in vivo at 10 mg/kg (Mus musculus [4]): 23%
O=C(O)C[C@H]1CC[C@H](c2ccc(-c3ccc4c(c3)OCCN4C(=O)NCc3ccccc3)cc2)CC1	6.96	–	–
O=C(O)C[C@H]1CC[C@H](c2ccc(-c3ccc4c(ccn4C(=O)Nc4ccccc4)c3)cc2)CC1	–	–	Selectivity ratio (Homo sapiens [8]): 100; Selectivity ratio (Homo sapiens [9]): 100; Papp [10]: 17 ×10⁻⁶ cm/s; solubility [11]: 20 µM (≈ 9.05 µg/mL); hepatocyte CLint [12]: 3.9 µL/min/1e6 cells; hepatocyte CLint [13]: 7.6 µL/min/1e6 cells; fold induction at 30 µM (CYP1A1): 3; inhibition in vivo at 10 mg/kg (Mus musculus [4]): 45%
O=C(O)C[C@H]1CC[C@H](c2ccc(-c3ccc4c(c3)OCCN4C(=O)Nc3ccccc3C(=O)O)cc2)CC1	< 5.00	< 5.00	–
O=C(O)C[C@H]1CC[C@H](c2ccc(-c3ccc4c(c3)OCCN4c3nc4ccccc4o3)cc2)CC1	< 5.00	< 5.00	–
O=C(O)C[C@H]1CC[C@H](c2ccc(-c3cnc4c(c3)OCCN4C(=O)Nc3ccccc3)cc2)CC1	< 5.00	< 5.00	–
CCc1ccccc1NC(=O)N1CCOc2cc(-c3ccc([C@H]4CC[C@H](CC(=O)O)CC4)cc3)ccc21	7.43	–	–
CCOc1ccc(NC(=O)N2CCOc3cc(-c4ccc([C@H]5CC[C@H](CC(=O)O)CC5)cc4)ccc32)cc1	7.47	–	–
O=C(O)C[C@H]1CC[C@H](c2ccc(-c3cccc4c3OCCN4C(=O)Nc3ccccc3)cc2)CC1	< 5.00	< 5.00	–
O=C(O)C[C@H]1CC[C@H](c2ccc(-c3ccc4c(c3)OCCN4C(=O)Nc3cc(C(F)(F)F)ccc3F)cc2)CC1	5.92	–	–
O=C(C[C@H]1CC[C@H](c2ccc(-c3ccc4c(c3)OCCN4C(=O)Nc3ccccc3)cc2)CC1)NO	6.04	–	–
CCC1CN(C(=O)Nc2ccccc2)c2ccc(-c3cnc(OCC(C)(C)C(=O)O)nc3)cc2O1 (stereo not drawn)	6.51	–	–
O=C(O)C[C@H]1CC[C@@H](c2ccc(-c3ccc4c(c3)OCCN4C(=O)Nc3ccccc3)cc2)CC1	7.35	7.28	inhibition in vivo at 3 mg/kg (Mus musculus [2]): 2%
O=C(O)C[C@H]1CC[C@H](c2ccc(-c3ccc4c(c3)OCCN4C(=O)Nc3ccccc3C(F)(F)F)cc2)CC1	7.80	–	–
O=C(Nc1ccccc1)N1CCOc2cc(-c3ccc([C@H]4CC[C@H](Cc5nnn[nH]5)CC4)cc3)ccc21	6.77	–	inhibition in vivo at 10 mg/kg (Mus musculus [4]): 9%
O=C(O)C[C@H]1CC[C@H](c2ccc(-c3ccc4c(n3)OCCN4C(=O)Nc3ccccc3)cc2)CC1	6.26	–	–
O=C(O)C[C@H]1CC[C@H](c2ccc(-c3ccc4c(c3)OCCN4C(=O)NC3CCCCC3)cc2)CC1	6.80	–	–
